The record followed here is US20100130737A1, “Regulating Agent of GPR34 Receptor Function” (TAKEDA PHARMACEUTICAL COMPANY LIMITED, priority 2005, published 2010).

The target of one data set is human GPR34 (Homo sapiens, UniProt Q9UPC5). In words: Human GPR34 antagonist activity indicated by changes in intracellular calcium concentration (FLIPR). The data set is classed as cell-based. The arrangement: expressed in transfected cells; host or cells: CHO cells (human GPR34CHO line) stably transfected with pCR3.1 human lung Gα16. The note with it: CHO cells expressing human GPR34/Gα16, against 2 μM lysoPS final concentration, Fluo-3AM. The protocol: CHO cells expressing human GPR34/Gα were diluted to 3×10^4/100 μl in cell culture medium [nucleic acid-free Minimum Essential Alpha Medium (Invitrogen) containing 10% dialyzed fetal bovine serum (Invitrogen) 0.5 mg/ml Geneticin (Invitrogen), penicillin and streptomycin (Invitrogen)], dispensed 100 μl per well into a Black walled 96-well plate (Costar), and cultured overnight in a CO2 incubator. Changes in intracellular calcium concentration were measured with a FLIPR (Molecular Device) by the methods described below.
50 μg of Fluo-3AM (Dojindo) was dissolved in 21 μl of DMSO (Dojindo), an equal amount of 20% pluronic acid (Molecular Probes) was added and mixed, and this was added to 10.6 ml of assay buffer [prepared by adding 20 ml of 1 M HEPES (pH 7.4, Dojindo) to HBSS (Invitrogen), and then adding 10 ml of a solution obtained by dissolving 710 mg of Probenecid (Sigma) in 5 ml of 1 N NaOH and then adding and mixing 5 ml of the HBSS/HEPES solution)] with 105 μl of fetal bovine serum added thereto to prepare a fluorescent dye solution. The medium was removed from the cell plate, 100 μl per well of the fluorescent dye solution was immediately poured in, and the cells were cultured for 1 hour in a CO2 incubator to incorporate the fluorescent dye into the cells. After culture, the cells were washed with the aforementioned assay buffer. The compound was dissolved in DMSO (Wako Pure Chemical), diluted with DMSO as necessary, added to the aforementioned assay buffer to the target concentration and poured into the plate. To measure antagonist activity, 8 μM lysophosphatidyl serine (lysoPS, Alexis) solution (2 μM final concentration during reaction) was poured into the plate, which was set in the FLIPR. Following these preliminaries, the agonist effect was measured in the FLIPR by measuring changes in intracellular calcium concentration up to 180 seconds after addition of the sample, and after 200 seconds lysoPS was added and the antagonist effect was measured. In the case of the agonist effect, the EC50 value of the added compound was calculated from the dose reaction curve using changes in fluorescent strength from 0 to 180 seconds after the start of the reaction. In the case of the antagonist effect, the IC50 was calculated from the dose reaction curve using changes in maximum fluorescent strength after 200 to 380 seconds of reaction time. The data was analyzed using “GraphPad PRISM4”.
In general terms: A change in cytosolic calcium serves as a functional read-out for many receptors and channels.

A value given as a limit tells only on which side of the number the result lay.

Sequence of human GPR34 (Q9UPC5 whole entry): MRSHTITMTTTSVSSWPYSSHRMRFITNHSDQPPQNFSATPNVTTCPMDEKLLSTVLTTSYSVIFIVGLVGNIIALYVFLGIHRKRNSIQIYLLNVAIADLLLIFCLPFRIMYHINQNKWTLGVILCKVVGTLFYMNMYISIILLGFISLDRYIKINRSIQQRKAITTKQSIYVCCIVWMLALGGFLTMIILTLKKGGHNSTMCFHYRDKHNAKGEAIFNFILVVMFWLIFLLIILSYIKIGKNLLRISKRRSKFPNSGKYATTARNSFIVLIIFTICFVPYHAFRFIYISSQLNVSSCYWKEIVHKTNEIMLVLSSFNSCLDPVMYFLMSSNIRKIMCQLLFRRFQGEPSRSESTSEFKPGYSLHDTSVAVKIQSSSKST

As usually defined, the melting point is the temperature of the solid-liquid transition. The IC50 is the concentration at which inhibition is half-maximal. In the case of `O=C(N[C@@H](Cc1ccc(OCc2ccccc2)cc1)C(=O)O)c1cc2cc(-c3ccc(Cl)cc3)ccc2o1` [Example C148, O-Benzyl-N-{[5-(4-chlorophenyl)-1-benzofuran-2-yl]carbonyl}tyrosine], the melting point was 250 to 251 °C. For the same compound, on human GPR34, the IC50 is at most 1000 nM.
In the same order, the values of `O=C(N[C@@H](Cc1ccc(OCc2cccc(F)c2)cc1)C(=O)O)c1cc2ccc(-c3ccc(Cl)cc3)cc2o1` [Example C153, N-{[6-(4-Chlorophenyl)-1-benzofuran-2-yl]carbonyl}-O-(3-fluorobenzyl)tyrosine] are 162 to 163 °C and at most 1000 nM.
Taken in the same sequence, the figures for `O=C(N[C@@H](Cc1ccc(OCc2ccccc2)cc1)C(=O)O)c1cc2ccc(-c3ccc(Cl)cc3)cc2[nH]1` [Example C163, O-Benzyl-N-{[6-(4-chlorophenyl)-1H-indol-2-yl]carbonyl}tyrosine] were 202 to 204 °C and at most 1000 nM.
In the same order, the values of `Cn1c(C(=O)N[C@@H](Cc2ccc(OCc3ccccc3)cc2)C(=O)O)cc2ccc(-c3ccc(Cl)cc3)cc21` [Example C164, O-Benzyl-N-{[6-(4-chlorophenyl)-1-methyl-1H-indole-2-yl]carbonyl}tyrosine] are 205 to 206 °C and at most 1000 nM.
The compound `O=C(N[C@@H](Cc1ccc(OCc2ccccc2)cc1)C(=O)O)c1cc2cc(-c3ccc(Cl)cc3)ccc2[nH]1` [Example C165, O-Benzyl-N-{[5-(4-chlorophenyl)-1H-indol-2-yl]carbonyl}tyrosine] registered a melting point of 239 to 240 °C. For the same compound, the IC50 on human GPR34 was at most 1000 nM.
In the same order, the values of `Cn1c(C(=O)N[C@@H](Cc2ccc(OCc3ccccc3)cc2)C(=O)O)cc2cc(-c3ccc(Cl)cc3)ccc21` [Example C166, O-Benzyl-N-{[5-(4-chlorophenyl)-1-methyl-1H-indol-2-yl]carbonyl}tyrosine] are 238 to 239 °C and at most 1000 nM.
In the same order, the values of `O=C(N[C@@H](Cc1ccc(OCc2ccccc2)cc1)C(=O)O)c1nc2ccc(-c3ccc(Cl)cc3)cc2[nH]1` [Example C167, O-Benzyl-N-{[6-(4-chlorophenyl)-1H-benzimidazol-2-yl]carbonyl}tyrosine] are 260 to 261 °C and at most 1000 nM.
Taken in the same sequence, the figures for `O=C(/C=C/c1cccc(-c2ccc(Cl)cc2)c1)N[C@@H](Cc1ccc(OCc2ccccc2)cc1)C(=O)O` [Example D1, O-Benzyl-N-[(2E)-3-(4′-chlorobiphenyl-3-yl)propa-2-enoyl]tyrosine] were 194 to 195 °C and at most 1000 nM.
As for `O=C(/C=C/c1ccc(-c2ccc(Cl)cc2)cc1)N[C@@H](Cc1ccc(OCc2ccccc2)cc1)C(=O)O` [Example D2, O-Benzyl-N-[(2E)-3-(4′-chlorobiphenyl-4-yl)propa-2-enoyl]tyrosine], the melting point lay within 253 to 254 °C. Also, the IC50 at human GPR34 was at most 1000 nM.
Taken in the same sequence, the figures for `O=C(N[C@@H](Cc1ccc(OCc2ccccc2)cc1)C(=O)O)c1cn2cc(-c3ccc(Cl)cc3)ccc2n1` [Example E1, O-Benzyl-N-{[6-(4-chlorophenyl)imidazo[1,2-a]pyridin-2-yl]carbonyl}tyrosine] were 270 to 271 °C and at most 1000 nM.
Taken in the same sequence, the figures for `O=C(N[C@@H](Cc1ccc(OCc2ccccc2)cc1)C(=O)O)c1cn2nc(-c3ccc(Cl)cc3)ccc2n1` [Example E3, O-Benzyl-N-{[6-(4-chlorophenyl)imidazo[1,2-b]pyridazin-2-yl]carbonyl}tyrosine] were 242 to 243 °C and at most 1000 nM.
In the same order, the values of `O=C(N[C@@H](Cc1ccc(NCc2ccccc2)cc1)C(=O)O)c1cn2cc(-c3ccc(Cl)cc3)ccc2n1` [Example E5, 4-(Benzylamino)-N-([6-(4-chlorophenyl)imidazo[1,2-a]pyridin-2-yl]carbonyl}phenylalanine] are 260 °C and at most 1000 nM.
On to `O=C(N[C@@H](Cc1ccc(OCc2ccccc2)cc1)C(=O)O)c1cn2c(-c3ccc(Cl)cc3)cccc2n1` [Example E9, O-Benzyl-N-{[5-(4-chlorophenyl)imidazo[1,2-a]pyridin-2-yl]carbonyl}tyrosine], for which the melting point came to 218 °C. Further, at human GPR34, the IC50 was at most 1000 nM.
Take `CN(C(=O)c1cn2cc(-c3ccc(Cl)cc3)ccc2n1)[C@@H](Cc1ccc(OCc2ccccc2)cc1)C(=O)O` [Example E12, O-Benzyl-N-{[6-(4-chlorophenyl)imidazo[1,2-a]pyridin-2-yl]carbonyl}-N-methyltyrosine]: the melting point amounted to 216 °C. In addition, at human GPR34, the IC50 is at most 1000 nM.
With `O=C(N[C@@H](Cc1ccc(OCc2ccccc2)cc1)C(=O)O)c1cc2nccc(-c3ccc(Cl)cc3)n2n1` [Example E16, O-Benzyl-N-{[7-(4-chlorophenyl)pyrazolo[1,5-a]pyrimidin-2-yl]carbonyl}tyrosine], the melting point lay in the range of 102 to 103 °C. Also, the IC50 on human GPR34 is at most 1000 nM.
In the same order, the values of `O=C(N[C@@H](Cc1ccc(OCc2ccccc2)cc1)C(=O)O)c1cn2cc(-c3ccccc3F)ccc2n1` [Example E19, O-Benzyl-N-{[6-(2-fluorophenyl)imidazo[1,2-a]pyridin-2-yl]carbonyl}tyrosine] are 238 °C and at most 1000 nM.
`O=C(N[C@@H](Cc1ccc(OCc2ccccc2)cc1)C(=O)O)c1cn2nc(C#Cc3ccccc3)ccc2n1` [Example E22, O-Benzyl-N-{[6-(phenylethynyl)imidazo[1,2-b]pyridazin-2-yl]carbonyl}tyrosine] showed a melting point of 224 to 227 °C. In addition, at human GPR34, the IC50 was at most 1000 nM.
Taken in the same sequence, the figures for `CS(=O)(=O)NC(=O)[C@H](Cc1ccc(OCc2ccccc2)cc1)NC(=O)c1cn2cc(-c3ccc(Cl)cc3)ccc2n1` [Example E23, O-Benzyl-Nα-{[6-(4-chlorophenyl)imidazo[1,2-a]pyridin-2-yl]carbonyl}-N-(methylsulfonyl)tyrosinamide] were 232 °C and at most 1000 nM.
In turn, `O=C(N[C@@H](Cc1ccc(OCc2ccccc2)cc1)C(=O)O)c1cn2cc(-c3ccccc3Cl)ccc2n1` [Example E24, O-Benzyl-N-{[6-(2-chlorophenyl)imidazo[1,2-a]pyridin-2-yl]carbonyl}tyrosine] came in with a melting point of 228 °C. Besides, the half-inhibitory concentration (IC50) on human GPR34 is at most 1000 nM.
Taken in the same sequence, the figures for `O=C(N[C@@H](Cc1ccc(OCc2ccccc2)cc1)C(=O)O)c1ccc2nc(-c3ccc(Cl)cc3)cn2c1` [Example E25, O-Benzyl-N-{[2-(4-chlorophenyl)imidazo[1,2-a]pyridin-6-yl]carbonyl}tyrosine] were 278 to 280 °C and at most 1000 nM.
Taken in the same sequence, the figures for `Cc1c(-c2ccc(Cl)cc2)ccc2nc(C(=O)N[C@@H](Cc3ccc(OCc4ccccc4)cc3)C(=O)O)cn12` [Example E26, O-Benzyl-N-{[6-(4-chlorophenyl)-5-methylimidazo[1,2-a]pyridin-2-yl]carbonyl}tyrosine] were 263 to 264 °C and at most 1000 nM.
The compound `Cc1cc(-c2ccc(Cl)cc2)cn2cc(C(=O)N[C@@H](Cc3ccc(OCc4ccccc4)cc3)C(=O)O)nc12` [Example E27, O-Benzyl-N-{[6-(4-chlorophenyl)-8-methylimidazo[1,2-a]pyridin-2-yl]carbonyl}tyrosine] showed a melting point of 249 to 250 °C. Also, the IC50 at human GPR34 is at most 1000 nM.
